We go through 1 sequence from US20180318383A1, “PEPTIDE HAVING NEURONAL LOSS PREVENTION AND REGENERATION EFFECTS, AND COMPOSITION CONTAINING SAME” (GEMVAX & KAEL CO., LTD., priority 2015, published 2018).

In one test the test system is NeuN. Kind of test: NeuN expression in 3XTg-AD mice (western blotting). The conditions noted are these: hippocampus and whole brain; s.c. three times a week for two months from age 12 months; vs control and Donepezil, same amount. Format: in vivo. The procedure: To test the efficacy of PEP1 on AD, AD transgenic mice (3XTg-AD) were purchased from Jackson Laboratory. Genetic characteristics of the transgenic mice are as follows: B6; 129-Psen1tm1Mpm Tg(APPSwe, tauP301L)1Lfa/Mmjax. […] One week after mice were confirmed as pregnant, new mice were delivered and weaned for 3 weeks. Two weeks later, mature mice were obtained.
During the preliminary breeding and the entire period of the experiment, a temperature was maintained at 23±2° C. and a relative humidity was maintained at 60±10%, and then the mice were raised under a 12-hour dark/light cycle. Experimental animals were divided into five groups, and each group included 10 animals. The divided experimental groups are as follows. […]
The PEP1, physiological saline, donepezil and scramble peptide were subcutaneously injected at each concentration three times a week for two months from the age of 12 months, and then two months after the injection, cognitive/memory behavior tests (passive avoidance test and Y maze test) were performed to examine a degree of improvement in cognitive function and memory function. After the brain was extracted to separate the hippocampus, the amounts of amyloid beta in the hippocampus and the whole brain, and the amounts of an amyloid beta oligomer and NFT generated by tau hyperphosphorylation were determined by western blotting and immunostaining. […]
In general terms: Immunoblotting shows a protein as a band on a membrane.

The test system of the next test is neuronal apoptosis. Kind of test: Oxygen-glucose deprivation (OGD), in vitro model of ischemic stroke. Type of test: cell-based.

Take “EARPALLTSRLRFIPK (homo sapiens) [PEP1, hTERT-derived peptide consisting of 16 amino acids, telomerase location [611-626]]”: the NeuN result with NeuN is “increased”. Also, the “neuronal apoptosis caused by oxygen-glucose deprivation (OGD)” value in the test on neuronal apoptosis was “inhibiting neuronal apoptosis”.
